Measurements from article PMC11306024, “Novel metabolite madeirone and neomarinone extracted from Streptomyces aculeoletus as marine antibiofilm and antifouling agents” (Frontiers in Chemistry, 2024).
In brackets after ≈: the same amount, converted by molar mass.

Columns and labels:
P. inhibens = assay: Antibiofilm activity (inhibition of biofilm formation); assay type: cell-based, Phaeobacter inhibens DSM 17395; conditions: for Biofilm inhibition, up to (highest over tested concentrations) P. inhibens: 0.98-31.25 µg/mL tested; for inhibition at 15.6 µg/mL: 15.60 µg/mL
Method: (§1) To assess antimicrofouling activity, we selected five marine bacterial species as models: Marinobacter hydrocarbonoclasticus DSM 8798 (ATCC 49840), C. marina DSM 4741, Phaeobacter inhibens DSM 17,395, Pseusooceanicola batsensis DSM 15,984, and Micrococcus luteus DSM 20030 (ATCC 4698) ([Michael et al., 2016]). These strains, sourced from DSMZ (Leibniz Institute DSMZ—German Collection of Microorganisms and Cell Cultures), were cultured in liquid marine broth (Carl Roth GmbH, Karlsruhe, Germany) with agitation at 180 rpm or on agar-supplemented marine broth. Incubation temperatures were set at 28°C for M. hydrocarbonoclasticus and Cobetia marina, 30°C for P. inhibens and P. batsensis, while M. luteus was maintained at 37°C in Brain Heart Infusion broth (BHI, Becton Dickinson, GmbH, Heidelberg, Germany) under similar agitation conditions.
(§2) The antibiofilm potential of compounds (1) and (2) against the five marine bacterial species was investigated in 96-well polystyrene flat-bottom microplates (Nunclon Delta Surface, Thermo Scientific, Roskilde, Denmark), as described previously ([Bauermeister et al., 2019]; [Pereira et al., 2020]). In the initial screening, bacterial overnight cultures were diluted to an OD600 of 0.2 and incubated statically at appropriate temperatures. The cultures were tested at 31.25, 15.60, 7.81, 3.91, 1.95, 0.98 μg/mL concentrations (2-fold serial dilutions) of compounds (1) and (2), solubilized in DMSO, or left untreated. After 24 h (M. hydrocarbonoclasticus, C. marina) or 48 h (P. batsensis, P. inhibens, M. luteus) incubation, OD600 was measured. The planktonic cells and media were discarded, and the wells were washed twice with deionized water. Biofilms were fixed, stained, and quantified by measuring the OD600 after solubilization with acetic acid. Biofilm inhibition percentages were calculated relative to untreated bacterial species, using DMSO as a negative control and CuSO4 (0.16 μg/mL), as a positive control. All assays were performed in triplicate, and the results represent the mean and standard error of the mean (SEM). Statistical analysis was conducted using GraphPad Prism 8.0.2, employing one-way ANOVA followed by Dunnett’s multiple comparisons test against the negative control.

P. batsensis = assay: as above; assay type: cell-based, Pseudo-oceanicola batsensis DSM 15984; conditions: for inhibition at 0.98 µg/mL / inhibition at 1.95 µg/mL / inhibition at 3.91 µg/mL / inhibition at 7.81 µg/mL / inhibition at 15.6 µg/mL / inhibition at 31.25 µg/mL: 48 h; for inhibition at 15.6 µg/mL: 15.60 µg/mL
Method: as §1, §2

M. hydrocarbonoclasticus = assay: as above; assay type: cell-based, Marinobacter hydrocarbonoclasticus DSM 8798; conditions: for Biofilm inhibition, up to (highest over tested concentrations) M. hydrocarbonoclasticus: 0.98-31.25 µg/mL tested; for inhibition at 15.6 µg/mL: 15.60 µg/mL
Method: as §1, §2

[1] = tested on: M. galloprovincialis plantigrade larvae; assay: Mussel plantigrade larvae anti-settlement bioassay; assay type: in vivo, Mytilus galloprovincialis; conditions: 15 h acute exposure, 95% confidence limits in brackets; for EC50: Mytilus galloprovincialis, 15 h, read-out: EC50 [Conf. Limits] anti-settlement
Method: The in vivo antimacrofouling activity of compounds (1) and (2) was evaluated against mussel M. galloprovincialis adhesive larvae (plantigrades) in an acute bioassay. Juvenile mussel aggregates were harvested from the intertidal rocky shore during low spring tides at Memória beach, Matosinhos, Portugal. In the laboratory, precisely before the bioassays, mussel plantigrade larvae were meticulously screened and isolated from the juvenile aggregates using a binocular microscope (Olympus SZX2-ILLT, Hamburg, Germany). The isolated larvae were then washed with filtered seawater to eliminate organic debris, and competent plantigrade larvae, characterized by foot exploratory behavior, were selected for the exposure bioassays, following established protocols ([Almeida et al., 2017]; [Almeida et al., 2020]; [Antunes et al., 2019]; [Mabrouk et al., 2020]). Plantigrades were exposed in 24-well polystyrene plates for 15 h in darkness at 18°C. DMSO served as the solvent for the testing compounds in stock and working solutions. The DMSO concentration in the tested solutions was consistently maintained at 0.1%. Each condition was replicated in four wells, with five larvae per well. Two negative controls, one with ultra-pure water and other with DMSO were included in all bioassays, along with a positive control using 0.16 μg/mL CuSO4, as a reference antifouling agent. The anti-settlement bioactivity was assessed based on the presence or absence of fixed byssal threads produced by each individual larva for all tested conditions. […] EC50 values for each compound were calculated using Probit regression analysis. Significance was considered at p < 0.01, and 95% lower and upper confidence limits (95% LCL; UCL). The software IBM SPSS Statistics 28 was used for statistical analysis. The therapeutic ratio (LC50/EC50) was employed to evaluate the effectiveness versus the toxicity of the compounds ([Qian et al., 2009]; [Almeida and Vasconcelos, 2015]).

Aliivibrio fischeri = assay: Inhibition of bioluminescence (ISO 11348-3 micro adaptation); assay type: cell-based; conditions: Aliivibrio fischeri
Method: The in vivo evaluation of compounds (1) and (2) for acute toxicity was performed towards marine bacterium Aliivibrio fischeri, and planktonic crustacean Daphnia magna. The chronic ecotoxicity tests were evaluated using algae Pseudokirchneriella subcapitata and Phaeodactylum tricornutum.
The inhibition of bioluminescence of the marine bacterium A. fischeri, were studied following a micro adaptation of the standard procedure ISO 11348-3 (“Water Quality-Determination of the inhibitory effect of water samples on the light emission of Vibrio fischeri - Luminescent bacteria test–using freeze-dried bacteria method”). Briefly, frozen lyophilized bacterial cells (Abraxis, Warminster, PA, United States) were reconstituted in Reconstitution Solution, supplied by the manufacturer of the Abratox kit (Abraxis). Madeirone (1) and neomarinone (2) were dissolved in DMSO and tested at the concentrations of 100, 50, 25, 12.5, 6.25, 3.13, and 1.56 μg/mL. The emitted luminescence was measured using a luminometer at time 0 min and at different exposure times (5, 15 and 30 min) and the percentage of inhibition of bioluminescence was determined. Each experiment was performed in duplicate and the results of three independent experiments with <10% SD are presented. Phenol was used as a positive control.

| Structure (SMILES) | Biofilm inhibition (%) P. inhibens (P. inhibens; 0.98 µg/mL, 48 h) | Biofilm inhibition (%) P. inhibens (P. inhibens; 1.95 µg/mL, 48 h) | Biofilm inhibition, up to (highest over tested concentrations) P. inhibens (P. inhibens) | inhibition at 7.81 µg/mL (P. inhibens; Phaeobacter inhibens, 48 h) [%] | inhibition at 15.6 µg/mL (P. inhibens; Phaeobacter inhibens, 48 h) [%] | inhibition at 31.25 µg/mL (P. inhibens; Phaeobacter inhibens, 48 h) [%] | inhibition at 0.98 µg/mL (P. batsensis) [%] | inhibition at 1.95 µg/mL (P. batsensis) [%] | inhibition at 3.91 µg/mL (P. batsensis) [%] | inhibition at 7.81 µg/mL (P. batsensis) [%] | inhibition at 15.6 µg/mL (P. batsensis) [%] | inhibition at 31.25 µg/mL (P. batsensis) [%] | Biofilm inhibition, up to (highest over tested concentrations) M. hydrocarbonoclasticus (M. hydrocarbonoclasticus) | inhibition at 7.81 µg/mL (M. hydrocarbonoclasticus; Marinobacter nauticus, 24 h) [%] | inhibition at 15.6 µg/mL (M. hydrocarbonoclasticus; Marinobacter nauticus, 24 h) [%] | inhibition at 31.25 µg/mL (M. hydrocarbonoclasticus; Marinobacter nauticus, 24 h) [%] | EC50 [Conf. Limits] anti-settlement [1] | EC50 [1] [µg/mL] | Inhibition (%) A. fischeri (bioluminescence) (Aliivibrio fischeri; 50 µg/mL) [%] | Inhibition (%) A. fischeri (bioluminescence) (Aliivibrio fischeri; 100 µg/mL) [%] | further results |
| --- | --- | --- | --- | --- | --- | --- | --- | --- | --- | --- | --- | --- | --- | --- | --- | --- | --- | --- | --- | --- | --- |
| CC1=CCC[C@@H](C)[C@]1(C)CC[C@@]1(C)c2c(O)cc3c(c2O[C@@H]1C)C(=O)C=C(CO)C3=O (relative stereo) [compound 1, madeirone] | N.I. | N.I. | up to 66% | 33.9 ± 1.3 | 53 ± 1 | 66.7 ± 0.3 | 10.8 ± 1.7 | 17.9 ± 2.4 | 24.9 ± 2.9 | 34.8 ± 2.7 | 49.1 ± 0.7 | 59.2 ± 0.4 | up to 60% | 14.2 ± 3.6 | 33.9 ± 2.1 | 60.1 ± 0.5 | 1.755 (1.308–5.492) µg/mL | 1.76 (≈ 4.15 µM) | 15.1 | 49.2 | inhibition at 3.91 µg/mL (P. inhibens; Phaeobacter inhibens, 3.91 µg/mL, 48 h): 10.2 ± 3.7%; Biofilm inhibition (%) M. hydrocarbonoclasticus (M. hydrocarbonoclasticus; 0.98 µg/mL, 24 h): N.I.; Biofilm inhibition (%) M. hydrocarbonoclasticus (M. hydrocarbonoclasticus; 1.95 µg/mL, 24 h): N.I.; Biofilm inhibition (%) M. hydrocarbonoclasticus (M. hydrocarbonoclasticus; 3.91 µg/mL, 24 h): N.I. |
| CC1=CCC[C@@H](C)[C@]1(C)CC[C@@]1(C)c2c(O)cc3c(c2O[C@@H]1C)C(=O)C(C)=C(O)C3=O [compound 2, neomarinone] | N.I. | N.I. | up to 41% | 11.6 ± 1.8 | 30 ± 0.6 | 41.3 ± 0.9 | 11.7 ± 6.2 | 13.9 ± 5.7 | 19.4 ± 4 | 26.3 ± 5.9 | 34.9 ± 4.8 | 40.7 ± 4.7 | ≤ 56% | 54.4 ± 1.8 | 56.7 ± 1.5 | 29 ± 10.1 | 0.119 (0.015–0.253) µg/mL | 0.12 (≈ 0.283 µM) | 25.0 | 37.3 | Biofilm inhibition (%) P. inhibens (P. inhibens; 3.91 µg/mL, 48 h): N.I.; Biofilm inhibition, up to (highest over tested concentrations) P. batsensis (P. batsensis; 0.98-31.25 µg/mL tested): up to 40%; inhibition at 0.98 µg/mL (M. hydrocarbonoclasticus; Marinobacter nauticus, 0.98 µg/mL, 24 h): 49.2 ± 6.2%; inhibition at 1.95 µg/mL (M. hydrocarbonoclasticus; Marinobacter nauticus, 1.95 µg/mL, 24 h): 58.1 ± 1.6%; inhibition at 3.91 µg/mL (M. hydrocarbonoclasticus; Marinobacter nauticus, 3.91 µg/mL, 24 h): 54.5 ± 3.6% |
